Measurements as given in patent publication US9216991B2 (Ares Trading S.A., priority 2012, dated 2015).

Each compound was assayed against T1, IRAK4 (Homo sapiens, UniProt Q9NWZ3) (assay: IRAK4 Enzymatic Assay). Settings: His-TEV-IRAK4 20 ng/well, ATP 2 μM, STK1-biotin peptide 300 nM, 3 hours at 30° C., FlashPlate radioactivity.
T1 construct: His (N); TEV cleavage site (N)
T1 sequence (Q9NWZ3 1-460): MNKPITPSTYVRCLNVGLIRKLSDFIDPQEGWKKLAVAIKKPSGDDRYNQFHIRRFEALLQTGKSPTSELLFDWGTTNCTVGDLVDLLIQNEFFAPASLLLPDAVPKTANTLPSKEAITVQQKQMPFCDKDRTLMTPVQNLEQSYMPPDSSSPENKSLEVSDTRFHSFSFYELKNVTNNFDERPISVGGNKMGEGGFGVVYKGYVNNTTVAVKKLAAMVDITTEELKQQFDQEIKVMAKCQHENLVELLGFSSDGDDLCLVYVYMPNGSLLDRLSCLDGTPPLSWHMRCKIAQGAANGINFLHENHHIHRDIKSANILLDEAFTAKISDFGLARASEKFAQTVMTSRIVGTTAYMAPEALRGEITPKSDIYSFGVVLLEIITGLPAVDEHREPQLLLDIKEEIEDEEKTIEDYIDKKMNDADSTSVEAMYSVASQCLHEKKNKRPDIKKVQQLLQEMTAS
Type: biochemical
Summary of the method: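 Recombinant His-TEV-tagged IRAK4 (20 ng/well) phosphorylates biotinylated STK1 peptide (300 nM) with 2 μM ATP plus [^33P]ATP, 3 h at 30 °C in pH 7.0 HEPES buffer with MgCl2 and MnCl2; compounds tested 20 μM to 1 nM. Reaction stopped with EDTA; incorporated radioactivity counted on streptavidin FlashPlates.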
`CN(C)C(=O)[C@H]1CC[C@H](n2cc(-c3cnc(-c4cccc(-c5ccc(Cl)nn5)c4)nc3)cn2)CC1` [Example 234, Trans-4-(4-{2-[3-(6-Chloro-pyridazin-3-yl)-phenyl]-pyrimidin-5-yl}-pyrazol-1-yl)-cyclohexanecarboxylic acid dimethylamide] was tested, and the IC50 was 1000 to 5000 nM.
`Cc1ccc(-c2cccc(-c3ncc(-c4cnn([C@H]5CC[C@H](C(=O)N(C)C)CC5)c4)cn3)c2)nn1` [Example 237, Trans-4-(4-{2-[3-(6-Methyl-pyridazin-3-yl)-phenyl]-pyrimidin-5-yl}-pyrazol-1-yl)-cyclohexanecarboxylic acid dimethylamide] showed an IC50 of 1000 to 5000 nM.
Work on `Cn1cc(-c2cccc(-c3ncc(-c4cnn([C@H]5CC[C@H](CO)CC5)c4)cn3)c2)cn1` [Example 238, Trans-[4-(4-{2-[3-(1-Methyl-1H-pyrazol-4-yl)-phenyl]-pyrimidin-5-yl}-pyrazol-1-yl)-cyclohexyl]-methanol] yielded an IC50 of less than 100 nM.
`CN(C)C(=O)[C@H]1CC[C@H](n2cc(-c3cnc(-c4cccc(-c5ccc(N)nn5)c4)nc3)cn2)CC1` [Example 239, Trans-4-(4-{2-[3-(6-Amino-pyridazin-3-yl)-phenyl]-pyrimidin-5-yl}-pyrazol-1-yl)-cyclohexanecarboxylic acid dimethylamide] gave an IC50 of 100 to 1000 nM.
Work on `Cn1cc(-c2cccc(-c3ncc(-c4cnn([C@H]5CC[C@H](C(=O)NCC(O)CO)CC5)c4)cn3)c2)cn1` (stereo partly drawn) [Example 242, Trans-4-(4-{2-[3-(1-Methyl-1H-pyrazol-4-yl)-phenyl]-pyrimidin-5-yl}-pyrazol-1-yl)-cyclohexanecarboxylic acid (2,3-dihydroxy-propyl)-amide] yielded an IC50 of less than 100 nM.
`C[C@@H]1C[C@H](n2cc(-c3cnc(-c4cccc(-c5cnn(C)c5)c4)nc3)cn2)CCN1` [Example 243, 5-[1-((2R,4R)-2-Methyl-piperidin-4-yl)-1H-pyrazol-4-yl]-2-[3-(1-methyl-1H-pyrazol-4-yl)-phenyl]-pyrimidine formic acid] was tested, and the IC50 was 100 to 1000 nM.
Work on `Cn1cc(-c2cccc(-c3ncc(-c4cnn([C@H]5CC[C@H](C(=O)N6C[C@H](O)[C@@H](O)C6)CC5)c4)cn3)c2)cn1` [Example 244, ((3S,4S)-3,4-Dihydroxy-pyrrolidin-1-yl)-[4-(4-{2-[3-(1-methyl-1H-pyrazol-4-yl)-phenyl]-pyrimidin-5-yl}-pyrazol-1-yl)-cyclohexyl]-methanone] yielded an IC50 of less than 100 nM.
Compound `C[C@H]1C[C@@H](n2cc(-c3cnc(-c4cccc(-c5cnn(C)c5)c4)nc3)cn2)CCN1` [Example 246, 5-[1-((2S,4S)-2-Methyl-piperidin-4-yl)-1H-pyrazol-4-yl]-2-[3-(1-methyl-1H-pyrazol-4-yl)-phenyl]-pyrimidine] has an IC50 of less than 100 nM.
Work on `Cc1cc(-c2cccc(-c3ncc(-c4cnn([C@H]5CC[C@H](O)CC5)c4)cn3)c2)cnn1` [Example 247, trans-4-(4-{2-[3-(6-Methyl-pyridazin-4-yl)-phenyl]-pyrimidin-5-yl}-pyrazol-1-yl)-cyclohexanol] yielded an IC50 of 100 to 1000 nM.
`CC(=O)N1CC[C@H](n2cc(-c3cnc(-c4cccc(-c5cnn(C)c5)c4)nc3)cn2)C[C@@H]1C` [Example 248, 1-[(2S,4S)-2-Methyl-4-(4-{2-[3-(1-methyl-1H-pyrazol-4-yl)-phenyl]-pyrimidin-5-yl}-pyrazol-1-yl)-piperidin-1-yl]-ethanone] gave an IC50 of less than 100 nM.
For `CC(=O)N1CC[C@@H](n2cc(-c3cnc(-c4cccc(-c5cnn(C)c5)c4)nc3)cn2)C[C@H]1C` [Example 249, 1-[(2R,4R)-2-Methyl-4-(4-{2-[3-(1-methyl-1H-pyrazol-4-yl)-phenyl]-pyrimidin-5-yl}-pyrazol-1-yl)-piperidin-1-yl]-ethanone], the IC50 was 100 to 1000 nM.
`Cn1cc(-c2cccc(-c3ncc(-c4cnn([C@H]5CC[C@]6(CCC(=O)N6)CC5)c4)cn3)c2)cn1` [Example 250, cis-8-(4-{2-[3-(1-Methyl-1H-pyrazol-4-yl)-phenyl]-pyrimidin-5-yl}-pyrazol-1-yl)-1-aza-spiro[4.5]decan-2-one] gave an IC50 of less than 100 nM.
Compound `CO[C@H]1CC[C@@H](n2cc(-c3cnc(-c4cccc(-c5cnn(C)c5)c4)nc3)cn2)CC1` [Example 252, Cis-5-[1-(4-Methoxy-cyclohexyl)-1H-pyrazol-4-yl]-2-[3-(1-methyl-1H-pyrazol-4-yl)-phenyl]-pyrimidine] has an IC50 of less than 100 nM.
For `CO[C@H]1CC[C@H](n2cc(-c3cnc(-c4cccc(-c5cnn(C)c5)c4)nc3)cn2)CC1` [Example 253, trans-5-[1-(4-Methoxy-cyclohexyl)-1H-pyrazol-4-yl]-2-[3-(1-methyl-1H-pyrazol-4-yl)-phenyl]-pyrimidine], the IC50 was less than 100 nM.
`Cn1cc(-c2cccc(-c3ncc(-c4cnn([C@H]5CC[C@H](N6CCOCC6=O)CC5)c4)cn3)c2)cn1` [Example 254, 4-[4-(4-{2-[3-(1-Methyl-1H-pyrazol-4-yl)-phenyl]-pyrimidin-5-yl}-pyrazol-1-yl)-cyclohexyl]-morpholin-3-one] gave an IC50 of less than 100 nM.
Work on `Cn1cc(-c2cccc(-c3ncc(-c4cnn([C@H]5CC[C@H](N6CCOC6=O)CC5)c4)cn3)c2)cn1` [Example 255, 3-[4-(4-{2-[3-(1-Methyl-1H-pyrazol-4-yl)-phenyl]-pyrimidin-5-yl}-pyrazol-1-yl)-cyclohexyl]-oxazolidin-2-one] yielded an IC50 of 100 to 1000 nM.
With `Cc1cc(-c2cccc(-c3ncc(-c4cnn([C@H]5CC[C@H](CO)CC5)c4)cn3)c2)cnn1` [Example 256, Trans-[4-(4-{2-[3-(6-Methyl-pyridazin-4-yl)-phenyl]-pyrimidin-5-yl}-pyrazol-1-yl)-cyclohexyl]-methanol] the IC50 was less than 100 nM.
In the case of `Cn1cc(-c2cccc(-c3ncc(-c4cnn([C@H]5CC[C@](O)(CO)CC5)c4)cn3)c2)cn1` [Example 258, Cis-1-Hydroxymethyl-4-(4-{2-[3-(1-methyl-1H-pyrazol-4-yl)-phenyl]-pyrimidin-5-yl}-pyrazol-1-yl)-cyclohexanol], the IC50 is reported as less than 100 nM.
`Cn1cc(-c2cccc(-c3ncc(-c4cnn(C5CCNCC5(F)F)c4)cn3)c2)cn1` (stereo not shown) [Example 259, 5-[1-(3,3-Difluoro-piperidin-4-yl)-1H-pyrazol-4-yl]-2-[3-(1-methyl-1H-pyrazol-4-yl)-phenyl]-pyrimidine] was tested, and the IC50 was 100 to 1000 nM.
`CN1C[C@]2(CC[C@H](n3cc(-c4cnc(-c5cccc(-c6cnn(C)c6)c5)nc4)cn3)CC2)CC1=O` [Example 260, trans-2-Methyl-8-(4-{2-[3-(1-methyl-1H-pyrazol-4-yl)-phenyl]-pyrimidin-5-yl}-pyrazol-1-yl)-2-aza-spiro[4.5]decan-3-one] was tested, and the IC50 was less than 100 nM.
`Cn1cc(-c2cccc(-c3ncc(-c4cnn(C5CCC(C(=O)N6CCO[C@H](CO)C6)CC5)c4)cn3)c2)cn1` (stereo partly drawn) [Example 261, ((S)-2-Hydroxymethyl-morpholin-4-yl)-[4-((S)-4-{2-[3-(1-methyl-1H-pyrazol-4-yl)-phenyl]-pyrimidin-5-yl}-pyrazol-1-yl)-cyclohexyl]-methanone] was tested, and the IC50 was less than 100 nM.
`CN1C[C@]2(CC[C@@H](n3cc(-c4cnc(-c5cccc(-c6cnn(C)c6)c5)nc4)cn3)CC2)CC1=O` [Example 262, cis-2-Methyl-8-(4-{2-[3-(1-methyl-1H-pyrazol-4-yl)-phenyl]-pyrimidin-5-yl}-pyrazol-1-yl)-2-aza-spiro[4.5]decan-3-one] showed an IC50 of less than 100 nM.
`CC(=O)N1CCC(n2cc(-c3cnc(-c4cccc(-c5cnn(C)c5)c4)nc3)cn2)C(F)C1` (stereo not drawn) [Example 263, Cis-1-[3-Fluoro-4-(4-{2-[3-(1-methyl-1H-pyrazol-4-yl)-phenyl]-pyrimidin-5-yl}-pyrazol-1-yl)-piperidin-1-yl]-ethanone] showed an IC50 of less than 100 nM.
`Cn1cc(-c2cccc(-c3ncc(-c4cnn(C5CCC(C(=O)N6CCO[C@@H](CO)C6)CC5)c4)cn3)c2)cn1` (stereo partly drawn) [Example 266, ((R)-2-Hydroxymethyl-morpholin-4-yl)-[4-((S)-4-{2-[3-(1-methyl-1H-pyrazol-4-yl)-phenyl]-pyrimidin-5-yl}-pyrazol-1-yl)-cyclohexyl]-methanone] showed an IC50 of less than 100 nM.
`Cn1cc(-c2cccc(-c3ncc(-c4cnn(C5CCOC6(CCOCC6)C5)c4)cn3)c2)cn1` (stereo not shown) [Example 267, 5-[1-(1,9-Dioxa-spiro[5.5]undec-4-yl)-1H-pyrazol-4-yl]-2-[3-(1-methyl-1H-pyrazol-4-yl)-phenyl]-pyrimidine] gave an IC50 of less than 100 nM.
`Cn1cc(-c2cccc(-c3ncc(-c4cnn([C@@H]5CCCN(S(C)(=O)=O)C5)c4)cn3)c2)cn1` [Example 268, 5-[(R)-1-(1-Methanesulfonyl-piperidin-3-yl)-1H-pyrazol-4-yl]-2-[3-(1-methyl-1H-pyrazol-4-yl)-phenyl]-pyrimidine] showed an IC50 of less than 100 nM.
Compound `CC(=O)N1CCC[C@@H](n2cc(-c3cnc(-c4cccc(-c5cnn(C)c5)c4)nc3)cn2)C1` [Example 269, 1-[3-((R)-4-{2-[3-(1-Methyl-1H-pyrazol-4-yl)-phenyl]-pyrimidin-5-yl}-pyrazol-1-yl)-piperidin-1-yl]-ethanone] has an IC50 of less than 100 nM.
With `Cn1cc(-c2cccc(-c3ncc(-c4cnn(C5CCN(C6CCCOC6)CC5)c4)cn3)c2)cn1` (stereo not shown) [Example 270, 2-[3-(1-Methyl-1H-pyrazol-4-yl)-phenyl]-5-{1-[1-(tetrahydro-pyran-3-yl)-piperidin-4-yl]-1H-pyrazol-4-yl}-pyrimidine] the IC50 was less than 100 nM.
